IC50 data for four molecules are collected here from BindingDB's records for doi:10.1021/jm960078j (University of Arizona, 1996).

As a reminder, the pIC50 is −log10 of the IC50, conventionally taken in molar units.

pIC50: −log10 of the molar value.

The assay is described as follows: Binding affinity towards Opioid receptor delta 1 was determined in guinea pig whole brain using [3H][4''-Cl-Phe4]-DPDPE as radioligand.
`CCCC[C@@H](C(=O)N[C@@H](CC(=O)O)C(=O)N[C@@H](Cc1ccccc1)C(N)=O)N(C)C(=O)[C@H](NC(=O)CNC(=O)[C@@H](Cc1ccccc1)NC(=O)[C@H](Cc1ccc(O)cc1)NC(=O)[C@@H](N)CC(=O)O)[C@@H](C)c1c[nH]c2ccccc12` had a pIC50 of 5.98.

Turning to `CCCC[C@@H](C(=O)N[C@@H](CC(=O)O)C(=O)N[C@@H](Cc1ccccc1)C(N)=O)N(C)C(=O)[C@H](NC(=O)CNC(=O)[C@@H](Cc1ccccc1)NC(=O)[C@H](Cc1ccc(O)cc1)NC(=O)[C@@H](N)CC(=O)O)[C@H](C)c1c[nH]c2ccccc12`, the pIC50 was 6.09. The molecule `CCCC[C@@H](C(=O)N[C@@H](CC(=O)O)C(=O)N[C@@H](Cc1ccccc1)C(N)=O)N(C)C(=O)[C@@H](NC(=O)CNC(=O)[C@@H](Cc1ccccc1)NC(=O)[C@H](Cc1ccc(O)cc1)NC(=O)[C@@H](N)CC(=O)O)[C@@H](C)c1c[nH]c2ccccc12` showed a pIC50 of 6.85. In the case of `CCCC[C@@H](C(=O)N[C@@H](CC(=O)O)C(=O)N[C@@H](Cc1ccccc1)C(N)=O)N(C)C(=O)[C@H](Cc1c[nH]c2ccccc12)NC(=O)CNC(=O)[C@@H](Cc1ccccc1)NC(=O)[C@H](Cc1ccc(O)cc1)NC(=O)[C@@H](N)CC(=O)O` [(3S)-3-[(2S)-2-[(2S)-2-{2-[(2R)-2-[(2S)-2-[(3S)-3-amino-3-formamidopropanoic acid]-3-(4-hydroxyphenyl)propanamido]-3-phenylpropanamido]acetamido}-3-(1H-indol-3-yl)-N-methylpropanamido]hexanamido]-3-{[(1S)-1-carbamoyl-2-phenylethyl]carbamoyl}propanoic acid], the pIC50 was 7.54.
